Where two headings read alike, the source gives them in different places.

Consider five compounds from EP4610262A1, “MACROCYCLIC COMPOUND AS CDK9 INHIBITOR AND USE THEREOF” (Artivila Biopharma, priority 2022, dated 2024).

The target of one assay is CDK9 (Homo sapiens, UniProt P50750). Briefly: Inhibition of CDK9 kinase activity (caliper mobility shift assay). The class given is biochemical. To be noted: for IC50: 10 concentrations from 10 µM, three-fold dilutions; for inhibition at 0.01 µM: compound at 10 nM. The procedure: (§1) Compounds were tested at a concentration of 10 nM with detection in duplicate wells, or tested at 10 concentrations starting from 10 µM with three-fold serial dilutions, with detection in duplicate wells.
Chain of CDK9 (P50750 whole entry): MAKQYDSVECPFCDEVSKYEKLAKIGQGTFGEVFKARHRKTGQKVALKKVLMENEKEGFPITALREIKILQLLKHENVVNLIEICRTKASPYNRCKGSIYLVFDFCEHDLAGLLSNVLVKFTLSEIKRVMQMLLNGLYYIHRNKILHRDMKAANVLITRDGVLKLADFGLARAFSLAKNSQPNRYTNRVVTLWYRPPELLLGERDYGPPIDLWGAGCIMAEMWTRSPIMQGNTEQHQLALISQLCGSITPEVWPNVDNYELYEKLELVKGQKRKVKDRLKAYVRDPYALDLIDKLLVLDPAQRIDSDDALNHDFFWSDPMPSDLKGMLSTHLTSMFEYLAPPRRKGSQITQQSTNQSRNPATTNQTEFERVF
Chain of CDK9 (O60563 whole entry partner): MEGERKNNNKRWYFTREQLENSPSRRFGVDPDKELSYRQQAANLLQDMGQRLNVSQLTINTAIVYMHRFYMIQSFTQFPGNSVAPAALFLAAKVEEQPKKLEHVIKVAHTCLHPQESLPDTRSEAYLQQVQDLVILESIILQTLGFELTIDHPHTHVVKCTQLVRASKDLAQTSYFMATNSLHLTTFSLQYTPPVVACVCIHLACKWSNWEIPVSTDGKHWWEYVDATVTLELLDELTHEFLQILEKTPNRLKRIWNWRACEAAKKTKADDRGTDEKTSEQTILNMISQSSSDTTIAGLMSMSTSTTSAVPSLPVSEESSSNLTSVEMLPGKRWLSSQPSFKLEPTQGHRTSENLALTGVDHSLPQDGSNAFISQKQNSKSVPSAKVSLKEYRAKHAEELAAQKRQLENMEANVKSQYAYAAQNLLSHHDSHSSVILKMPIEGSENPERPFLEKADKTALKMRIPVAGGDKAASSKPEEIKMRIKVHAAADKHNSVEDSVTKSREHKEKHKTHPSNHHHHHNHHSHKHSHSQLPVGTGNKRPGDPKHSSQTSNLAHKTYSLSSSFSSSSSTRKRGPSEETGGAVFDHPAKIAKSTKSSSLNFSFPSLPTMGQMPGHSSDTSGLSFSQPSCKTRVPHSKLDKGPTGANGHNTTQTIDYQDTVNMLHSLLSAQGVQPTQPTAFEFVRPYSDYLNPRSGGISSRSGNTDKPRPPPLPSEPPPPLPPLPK
(§2) The inhibitory effect of the compounds on the activity of CDK9 protein kinase was detected by the caliper mobility shift assay method. 250 nL of the compound at 100-fold final concentration was transferred to a target 384-well-plate with a dispenser Echo 550. A kinase solution at 2.5-fold final concentration was prepared using 1× kinase buffer. 10 µL of the kinase solution at 2.5-fold final concentration was added to the compound well and positive control well respectively. 10 µL of 1× kinase buffer was added to the negative control well. The 384-well plate was centrifuged at 1000 rpm for 30 seconds and incubated at room temperature for 10 minutes. A mixed solution of ATP and kinase substrate at 5/3-fold final concentration was prepared with 1× kinase buffer, and to the 384-well plate was added with 15 µL per well of the mixed solution of ATP and substrate at 5/3-fold final concentration to start the reaction. The plate was centrifuged at 1000 rpm for 30 seconds, shaken to mix evenly, and incubated at room temperature for a corresponding time. 30 µL of detection stopping solution was added to terminate the kinase reaction. The 384-well plate was centrifuged at 1000 rpm for 30 seconds and shaken to mix evenly. The conversion rate was read with Caliper EZ Reader. The percent conversion inhibition rate = (% positive control conversion rate mean - % sample conversion rate / (% positive control conversion rate mean - % negative control conversion rate mean). Among them: negative control wells represent the conversion rate readings of kinase buffer background wells; positive control wells represent the conversion rate readings of wells without inhibition by compound. With the log value of concentration as the x-axis and the percentage inhibition rate as the y-axis, a dose-response curve was fitted using the log (inhibitor) vs. response -Variable slope of the analysis software GraphPad Prism 5 to obtain the IC50 value of each compound on enzyme activity. Calculation formula: y=Bottom + (Top-Bottom)/(1+10^((LogIC50-x) × hillslope)), x: logarithm of inhibitor concentration; y: % inhibition rate.

In the next assay the target is JAK1 (Homo sapiens, UniProt P23458). Briefly: Kinase selectivity, inhibition rate at 10 nM (caliper mobility shift assay). Type of assay: biochemical. Conditions: compound at 10 nM. The procedure:
as §1, §2
(§3) According to the description of the above experiment on kinase activity inhibition, some compounds were tested for their selective inhibition rate against the kinases of CDK7, CDK9, JAK1, JAK2, JAK3, ITK, RET, TYK2, and LRRK2 at 10 nM. The results are shown in Table 3 below: (Inhibition rate range: A>50%; B: 25-49%; C: <25%): […]

The next assay concerns the target JAK2 (Homo sapiens, UniProt O60674). The description is as above. Type of assay: biochemical. To be noted: compound at 10 nM. As to the method: as §1, §2, §3
A further assay addresses LRRK2 (Homo sapiens, UniProt Q5S007). Described as above. Type of assay: biochemical. Conditions: compound at 10 nM. The procedure: as §1, §2, §3
In another assay the test system is A375. Briefly: CDK9 cell activity assay, cell growth inhibition (CellTiter-Glo, 72 hours). Type of assay: cell-based. Conditions: Homo sapiens, A-375. The procedure: (§4) In the CDK9 cell activity assay, the cell line MV-4-11 was cultured in IMDM culture medium containing 10% fetal bovine serum (containing 100 U/mL penicillin and 0.1 g/L streptomycin); the cell line HCC1187 was cultured in RPMI-1640 culture medium containing 10% fetal bovine serum (containing 100 U/mL penicillin and 0.1 g/L streptomycin); the cell line Mia Paca-2 was cultured in DMEM containing 10% fetal bovine serum and 2.5% horse serum (containing 100 U/mL penicillin and 0.1 g/L streptomycin); and the cell line A375 was cultured in RPMI-1640 culture medium containing 10% fetal bovine serum (containing 100 U/mL penicillin and 0.1 g/L streptomycin). All cells were cultured in an incubator with saturated humidity at 37°C with 5% CO2.
(§5) When MV-4-11 cells, HCC1187 cells, Mia Paca-2 cells, and A375 cells grew to 80%-90% confluence, they were digested with trypsin, resuspended, counted, and diluted to a certain cell density with complete medium. 100 µL of the cells was plated into each well of a 96-well plate, and the complete medium was used as a background control. The cells were cultured overnight in an incubator with saturated humidity at 37°C with 5% CO2. The compounds were diluted with DMSO to a final concentration of 200×. 3 µL of the stock solution of the above compounds in DMSO was added to 197 µL of complete medium, and 50 µL of the compound diluted in the medium was added to the cells of each well. The cells were cultured in an incubator with saturated humidity at 37°C with 5% CO2 for 72 hours. After 72 hours, the culture plates were placed at room temperature for equilibrium. 40 µL of CellTiter-Glo® reagent was added to each well. The plate was mixed evenly on a shaker for 2 minutes to lyse the cells then incubated at room temperature for 60 minutes to stabilize the chemiluminescent signal, and the chemiluminescence was read using a PE EnVision microplate reader. The inhibition rate on cell growth was calculated as % Inh = (DMSO well - compound treatment well) / (DMSO well - background well) x 100, and fitting was performed using GraphPad Prism 5 to obtain the IC50 values against cell growth.

In another assay the test system is HCC1187. The assay is described as above. Type of assay: cell-based. To be noted: Homo sapiens. The procedure: as §4, §5
The next assay relates to MV-4-11. The description is as above. The class given is cell-based. Conditions: Homo sapiens, MV4-11. As to the method:
as §4, §5

The next assay concerns Mia-Paca-2. Described as above. Conditions: Homo sapiens. Type of assay: cell-based. The procedure: as §4, §5
Setting [1] is: selectivity panel Table 3, read-out: Inhibition rate CDK9.
[2] abbreviates: read-out: Inhibition rate on CDK9 kinase activity.

Chain of JAK1 (P23458 whole entry): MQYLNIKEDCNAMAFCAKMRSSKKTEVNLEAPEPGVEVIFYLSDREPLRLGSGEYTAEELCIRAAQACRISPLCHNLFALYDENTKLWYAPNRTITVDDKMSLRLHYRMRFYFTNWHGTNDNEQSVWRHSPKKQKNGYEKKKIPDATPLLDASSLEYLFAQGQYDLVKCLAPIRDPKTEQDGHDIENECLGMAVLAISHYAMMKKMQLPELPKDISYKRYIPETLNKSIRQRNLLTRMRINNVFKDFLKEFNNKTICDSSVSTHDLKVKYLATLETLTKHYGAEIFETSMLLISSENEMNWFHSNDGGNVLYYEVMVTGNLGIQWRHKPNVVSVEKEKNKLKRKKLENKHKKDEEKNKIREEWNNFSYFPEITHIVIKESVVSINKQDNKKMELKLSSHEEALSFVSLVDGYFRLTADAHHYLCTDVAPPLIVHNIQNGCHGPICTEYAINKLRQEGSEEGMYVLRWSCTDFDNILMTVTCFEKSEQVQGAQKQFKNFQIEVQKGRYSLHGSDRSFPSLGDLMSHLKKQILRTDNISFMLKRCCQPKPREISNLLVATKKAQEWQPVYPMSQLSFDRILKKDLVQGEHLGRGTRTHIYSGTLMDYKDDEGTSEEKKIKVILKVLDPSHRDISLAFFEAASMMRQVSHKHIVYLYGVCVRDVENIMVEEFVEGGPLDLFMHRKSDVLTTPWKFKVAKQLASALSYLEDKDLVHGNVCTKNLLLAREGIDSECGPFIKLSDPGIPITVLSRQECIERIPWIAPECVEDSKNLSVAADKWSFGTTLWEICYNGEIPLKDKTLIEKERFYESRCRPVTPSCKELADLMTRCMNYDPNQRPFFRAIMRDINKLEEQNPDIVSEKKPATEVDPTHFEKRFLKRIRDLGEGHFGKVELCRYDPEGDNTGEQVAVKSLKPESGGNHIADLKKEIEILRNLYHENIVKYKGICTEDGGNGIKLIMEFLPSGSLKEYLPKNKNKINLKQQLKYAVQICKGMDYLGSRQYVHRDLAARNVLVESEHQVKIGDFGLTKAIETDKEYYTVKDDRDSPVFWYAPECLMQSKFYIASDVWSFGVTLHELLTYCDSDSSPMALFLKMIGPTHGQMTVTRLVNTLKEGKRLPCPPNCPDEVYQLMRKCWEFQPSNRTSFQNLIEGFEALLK
Chain of JAK2 (O60674 whole entry): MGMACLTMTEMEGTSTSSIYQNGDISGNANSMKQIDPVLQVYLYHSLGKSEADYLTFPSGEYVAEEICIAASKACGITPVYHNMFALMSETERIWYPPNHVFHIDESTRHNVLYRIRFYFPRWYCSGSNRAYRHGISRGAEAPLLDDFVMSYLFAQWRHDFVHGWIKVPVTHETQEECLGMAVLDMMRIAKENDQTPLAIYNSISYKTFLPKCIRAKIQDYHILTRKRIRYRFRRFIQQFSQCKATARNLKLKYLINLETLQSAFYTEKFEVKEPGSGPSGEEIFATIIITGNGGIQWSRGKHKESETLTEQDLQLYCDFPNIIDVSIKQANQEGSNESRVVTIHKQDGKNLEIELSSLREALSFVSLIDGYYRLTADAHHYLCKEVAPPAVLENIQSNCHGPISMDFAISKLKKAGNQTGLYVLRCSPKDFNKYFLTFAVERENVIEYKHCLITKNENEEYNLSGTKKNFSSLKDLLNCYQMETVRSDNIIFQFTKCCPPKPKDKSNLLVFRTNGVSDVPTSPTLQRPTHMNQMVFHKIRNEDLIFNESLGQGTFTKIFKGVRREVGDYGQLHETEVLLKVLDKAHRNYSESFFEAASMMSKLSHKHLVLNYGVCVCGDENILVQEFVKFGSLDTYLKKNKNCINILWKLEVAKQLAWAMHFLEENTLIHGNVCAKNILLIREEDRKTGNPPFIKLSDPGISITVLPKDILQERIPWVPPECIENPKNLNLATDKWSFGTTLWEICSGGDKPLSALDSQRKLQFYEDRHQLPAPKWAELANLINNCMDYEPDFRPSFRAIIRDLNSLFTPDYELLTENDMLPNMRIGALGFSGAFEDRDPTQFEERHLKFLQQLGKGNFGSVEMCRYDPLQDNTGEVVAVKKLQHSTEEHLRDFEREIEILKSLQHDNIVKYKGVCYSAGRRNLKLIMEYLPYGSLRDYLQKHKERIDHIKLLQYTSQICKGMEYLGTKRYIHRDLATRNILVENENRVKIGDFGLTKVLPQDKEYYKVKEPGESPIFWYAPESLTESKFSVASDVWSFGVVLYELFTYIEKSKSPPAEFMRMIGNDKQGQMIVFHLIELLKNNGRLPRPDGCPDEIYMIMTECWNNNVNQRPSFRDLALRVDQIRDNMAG

For orientation: IC50 means the concentration that gives 50% inhibition. The term inhibition denotes how much of the control response was suppressed. In the case of `Cc1ccc2cc1-c1nc(ncc1Cl)Nc1cccc(c1)NC/C=C\CN2` [Compound 12, (Z)-2^5-chloro-1^6-methyl-3,5,10-triaza-2(4,2)-pyrimidina-1,4(1,3)-dibenzocyclodecane-7-ene], the half-maximal inhibitory concentration (IC50) on CDK9 was less than 0.1 µM; in the assay on A375, less than 0.25 µM; in the assay with HCC1187, less than 0.25 µM; in the assay on MV-4-11, less than 0.25 µM; in the assay with Mia-Paca-2, less than 0.25 µM. In addition, the inhibition at 0.01 µM at CDK9 (setting [1]) is more than 50%; at CDK9 (setting [2]), more than 50%; at JAK1, less than 25%; at JAK2 it was less than 25%; at LRRK2, less than 25%.

Regarding `CN1CCCCCNc2nc(ncc2Cl)Nc2cccc(c2)C1` [Compound 10, 1^5-chloro-5-methyl-2,5,11-triaza-1(2,4)-pyrimidina-3(1,3)-benzene cycloundecane], the IC50 is less than 0.1 µM at CDK9; 0.25 to 1 µM in the assay on A375; 1 to 5 µM in the assay with HCC1187; less than 0.25 µM with MV-4-11; 0.25 to 1 µM with Mia-Paca-2. Moreover, the inhibition at 0.01 µM on CDK9 (setting [2]) was in the range of 25 to 49%.

Regarding `N#Cc1cnc2nc1NCCCCCNCc1cccc(c1)N2` [Compound 15, 2,5,11-triaza-1(2,4)-pyrimidina-3(1,3)-benzenacycloundecaphan-1^5-carbonitrile], at CDK9, the IC50 was less than 0.1 µM. In addition, the inhibition at 0.01 µM on CDK9 (setting [1]) is 25 to 49%; at CDK9 (setting [2]), 25 to 49%; at JAK1 it was less than 25%; on JAK2, less than 25%; on LRRK2, less than 25%.

For `Clc1cnc2nc1OCCCCCNCc1cccc(c1)N2` [Compound 18, 1^5-chloro-11-oxa-2,5-diaza-1(2,4)-pyrimidina-3(1,3)-benzenacyclodecaphane], the IC50 at CDK9 is less than 0.1 µM; in the assay with MV-4-11 it was less than 0.25 µM. The inhibition at 0.01 µM on CDK9 (setting [1]) was more than 50%; at CDK9 (setting [2]), more than 50%; on JAK1 it was less than 25%; on JAK2, less than 25%.

On to `Cc1ccc2cc1-c1nc(ncc1Cl)Nc1cnn(c1)CCOCCN2` [Compound 41, (E)-2^5-chloro-1^6-methyl-4^1H-7-oxa-3,10-diaza-2(4,2)-pyrimidina-4(4,1)-pyrazola-1(1,3)-benzena cyclodecaphane], for which the IC50 was less than 0.1 µM at CDK9, less than 0.25 µM in the assay with HCC1187 and less than 0.25 µM in the assay with MV-4-11.
